What was measured:
Assay in all cases: Weeding effect in post-emergence stage
Format in all cases: in vivo
Conditions in all cases: active ingredient 2000 g/ha, 3 weeks after application, fresh weight control rate
[1] = system: Abutilon theophrasti
Procedure, shortened: (§1)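 Post-emergence spray, 2-3 leaf stage; acetone/Tween 80 formulation + methyl oleate EC synergist (1.5 liter/ha); 125-2000 g/ha via spray tower. Greenhouse, 3 wk. Read-out: fresh weight growth control rate, graded by activity level.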

[2] = system: Amaranthus retroflexus L.
Procedure, shortened: as §1

[3] = system: Chenopodium album
Procedure, shortened: as §1

[4] = system: Descurainia sophia
Procedure, shortened: as §1

| SMILES | Weeding effect, activity level (growth control rate), Abutilon theophrasti [1] | Weeding effect, activity level (growth control rate), Amaranthus retroflexus L. [2] | Weeding effect, activity level (growth control rate), Chenopodium album [3] | Weeding effect, activity level (growth control rate), Descurainia sophia [4] |
| --- | --- | --- | --- | --- |
| Cn1nnnc1NC(=O)c1ccnc(-c2cnc(Cl)nc2)c1Cl [Compound 1-157] | 5 (Level 5: growth control rate is above 85%) | 5 (Level 5: growth control rate is above 85%) | 5 (Level 5: growth control rate is above 85%) | 5 (Level 5: growth control rate is above 85%) |
| Cn1nnnc1NC(=O)c1ccnc(-c2cnc(F)nc2)c1Cl [Compound 1-158] | 5 (Level 5: growth control rate is above 85%) | 5 (Level 5: growth control rate is above 85%) | 5 (Level 5: growth control rate is above 85%) | 5 (Level 5: growth control rate is above 85%) |
| Cn1nnnc1NC(=O)c1ccnc(-c2cnc(C#N)nc2)c1Cl [Compound 1-159] | 5 (Level 5: growth control rate is above 85%) | 5 (Level 5: growth control rate is above 85%) | 5 (Level 5: growth control rate is above 85%) | 5 (Level 5: growth control rate is above 85%) |
| Cn1nnnc1NC(=O)c1ccnc(-c2cnc(N)nc2)c1Cl [Compound 1-160] | 5 (Level 5: growth control rate is above 85%) | 5 (Level 5: growth control rate is above 85%) | 5 (Level 5: growth control rate is above 85%) | 5 (Level 5: growth control rate is above 85%) |
| COc1ncc(-c2nccc(C(=O)Nc3nnnn3C)c2Cl)cn1 [Compound 1-161] | 5 (Level 5: growth control rate is above 85%) | 5 (Level 5: growth control rate is above 85%) | 5 (Level 5: growth control rate is above 85%) | 5 (Level 5: growth control rate is above 85%) |
| COc1ncc(-c2nccc(C(=O)Nc3nnnn3C)c2Cl)c(OC)n1 [Compound 1-162] | 5 (Level 5: growth control rate is above 85%) | 5 (Level 5: growth control rate is above 85%) | 5 (Level 5: growth control rate is above 85%) | 5 (Level 5: growth control rate is above 85%) |
| Cn1nnnc1NC(=O)c1ccnc(-c2ncc(C#N)cn2)c1Cl [Compound 1-163] | 5 (Level 5: growth control rate is above 85%) | 5 (Level 5: growth control rate is above 85%) | 5 (Level 5: growth control rate is above 85%) | 5 (Level 5: growth control rate is above 85%) |
| Cn1nnnc1NC(=O)c1ccnc(-c2ncc(F)cn2)c1Cl [Compound 1-164] | 5 (Level 5: growth control rate is above 85%) | 5 (Level 5: growth control rate is above 85%) | 5 (Level 5: growth control rate is above 85%) | 5 (Level 5: growth control rate is above 85%) |
| Cn1nnnc1NC(=O)c1ccnc(-c2ccnc(C#N)n2)c1Cl [Compound 1-165] | 5 (Level 5: growth control rate is above 85%) | 5 (Level 5: growth control rate is above 85%) | 5 (Level 5: growth control rate is above 85%) | 5 (Level 5: growth control rate is above 85%) |
| Cn1nnnc1NC(=O)c1ccnc(-n2cc(F)cn2)c1Cl [Compound 1-166] | 5 (Level 5: growth control rate is above 85%) | 5 (Level 5: growth control rate is above 85%) | 5 (Level 5: growth control rate is above 85%) | 5 (Level 5: growth control rate is above 85%) |
| Cn1nnnc1NC(=O)c1ccnc(-c2cn[nH]c2)c1Cl [Compound 1-167] | 5 (Level 5: growth control rate is above 85%) | 5 (Level 5: growth control rate is above 85%) | 5 (Level 5: growth control rate is above 85%) | 5 (Level 5: growth control rate is above 85%) |
| Cn1cc(-c2nccc(C(=O)Nc3nnnn3C)c2Cl)cn1 [Compound 1-168] | 5 (Level 5: growth control rate is above 85%) | 5 (Level 5: growth control rate is above 85%) | 5 (Level 5: growth control rate is above 85%) | 5 (Level 5: growth control rate is above 85%) |
| Cc1nn(C)cc1-c1nccc(C(=O)Nc2nnnn2C)c1Cl [Compound 1-169] | 5 (Level 5: growth control rate is above 85%) | 5 (Level 5: growth control rate is above 85%) | 5 (Level 5: growth control rate is above 85%) | 5 (Level 5: growth control rate is above 85%) |
| Cc1c(-c2nccc(C(=O)Nc3nnnn3C)c2Cl)cnn1C [Compound 1-170] | 5 (Level 5: growth control rate is above 85%) | 5 (Level 5: growth control rate is above 85%) | 5 (Level 5: growth control rate is above 85%) | 5 (Level 5: growth control rate is above 85%) |
| Cc1[nH]ncc1-c1nccc(C(=O)Nc2nnnn2C)c1Cl [Compound 1-171] | 5 (Level 5: growth control rate is above 85%) | 5 (Level 5: growth control rate is above 85%) | 5 (Level 5: growth control rate is above 85%) | 5 (Level 5: growth control rate is above 85%) |
| CCn1cc(-c2nccc(C(=O)Nc3nnnn3C)c2Cl)cn1 [Compound 1-172] | 5 (Level 5: growth control rate is above 85%) | 5 (Level 5: growth control rate is above 85%) | 5 (Level 5: growth control rate is above 85%) | 5 (Level 5: growth control rate is above 85%) |
| CCCn1cc(-c2nccc(C(=O)Nc3nnnn3C)c2Cl)cn1 [Compound 1-173] | 5 (Level 5: growth control rate is above 85%) | 5 (Level 5: growth control rate is above 85%) | 5 (Level 5: growth control rate is above 85%) | 5 (Level 5: growth control rate is above 85%) |
| Cn1nnnc1NC(=O)c1ccnc(-c2cnn(C(F)F)c2)c1Cl [Compound 1-174] | 5 (Level 5: growth control rate is above 85%) | 5 (Level 5: growth control rate is above 85%) | 5 (Level 5: growth control rate is above 85%) | 5 (Level 5: growth control rate is above 85%) |
| Cn1nnnc1NC(=O)c1ccnc(-c2cnn(Cc3ccccc3)c2)c1Cl [Compound 1-175] | 5 (Level 5: growth control rate is above 85%) | 5 (Level 5: growth control rate is above 85%) | 5 (Level 5: growth control rate is above 85%) | 5 (Level 5: growth control rate is above 85%) |

Source: patent US12497365B2, “4-pyridinyl formamide compound or derivative thereof, preparation method therefor, herbicidal composition and use thereof” (Qingdao Kingagroot Chemical Compound Co., Ltd., priority 2019, dated 2025)
